This note sets out measurements from patent US6841684B2, “Imidiazoles having reduced side effects” (Allergan, Inc., priority 1997, dated 2005).

Where a name gives a salt, the structure may show the parent alone.

The target in the test is T1, rat α2B (RNG gene) receptor (Rattus norvegicus, UniProt P19328).
T1 construct: expressed in transfected cells; host or cells: NIH-3T3 cells, calcium phosphate cotransfection
T1 sequence (P19328 1-453): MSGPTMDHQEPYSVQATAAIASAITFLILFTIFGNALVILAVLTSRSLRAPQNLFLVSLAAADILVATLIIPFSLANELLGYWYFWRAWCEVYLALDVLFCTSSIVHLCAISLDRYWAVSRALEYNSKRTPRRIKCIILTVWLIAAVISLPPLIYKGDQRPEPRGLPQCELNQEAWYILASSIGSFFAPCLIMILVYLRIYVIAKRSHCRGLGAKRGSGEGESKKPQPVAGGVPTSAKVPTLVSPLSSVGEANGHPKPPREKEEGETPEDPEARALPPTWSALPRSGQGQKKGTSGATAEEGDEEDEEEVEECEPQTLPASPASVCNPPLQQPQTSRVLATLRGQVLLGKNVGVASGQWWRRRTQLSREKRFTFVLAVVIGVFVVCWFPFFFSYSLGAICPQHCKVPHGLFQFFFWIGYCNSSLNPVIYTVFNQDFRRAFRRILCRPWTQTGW
The experiment in a line: RSAT (Receptor Selection and Amplification Technology) assay, alpha 2B. The note with it: ratio of maximal effect to that of standard full agonist oxymetazoline. It is filed as cell-based. From the text:
This preferential activity can be determined in a variety of functional assays such as Cyclic AMP Production, Shimizu et al, J. Neurochem. […] In the study below, the RSAT assay on cells that have been transiently transfected with the human α2A (c10 gene), rat α2B (RNG gene) and human α2C (c4 gene) receptors was used.
The assay measures a receptor-mediated loss of contact inhibition that results in selective proliferation of receptor-containing cells in a mixed population of confluent cells. The increase in cell number is assessed with an appropriate transfected marker gene such as b-galactosidase, the activity of which can be easily measured in a 96-well format. Receptors that activate the G protein, Gq, elicit this response. Alpha2 receptors, which normally couple to Gi, activate the RSAT response when coexpressed with a hybrid Gq protein that has a Gi receptor recognition domain, called Gq/i5^2.
NIH-3T3 cells are plated at a density of 2×10^6 cells in 15 cm dishes and maintained in Dulbecco's modified Eagle's medium supplemented with 10% calf serum. One day later, cells are cotransfected by calcium phosphate precipitation with mammalian expression plasmids encoding p-SV-b-galactosidase (5-10 mg), receptor (1-2 mg) and G protein (1-2 mg). 40 mg salmon sperm DNA may also be included in the transfection mixture. Fresh media is added on the following day and 1-2 days later, cells are harvested and frozen in 50 assay aliquots. Cells are thawed and 100 ml added to […] aliquots of various concentrations of drugs in triplicate in 96-well dishes. Incubations continue 72-96 hr at 37°. After washing with phosphate-buffered saline, b-galactosidase enzyme activity is determined by adding 200 ml of the chromogenic substrate (consisting of 3.5 mM o-nitrophenyl-b-D-galactopyranoside and 0.5% nonidet P-40 in phosphate buffered saline), incubating overnight at 30° and measuring optical density at 420 nm. The absorbence is a measure of enzyme activity, which depends on cell number and reflects a receptor-mediated cell proliferation. The EC50 and maximal effect of each drug at each alpha2 receptor is determined. The efficacy or intrinsic activity is calculated as a ratio of the maximal effect of the drug to the maximal effect of a standard full agonist for each receptor subtype.

As for `O=C1/C(=C/c2c[nH]cn2)CCc2nccnc21` [Example R-1, (E)-6-(1H-imidazol-4(5)-ylmethylene)-7,8-dihydro-6H-quinoxalin-5-one], the “Intrinsic Activity Relative to Oxymetazoline, Alpha 2B” value came out at 0.8.

Regarding `O=C1/C(=C/c2c[nH]cn2)Cc2ccccc21` [Example B-7a, 2-(1-H-imidazol-4(5)-ylmethylene)indan-1-one], the “Intrinsic Activity Relative to Oxymetazoline, Alpha 2B” value worked out at 0.3.

Turning to `CCC1=C(C)CCC(Cc2c[nH]cn2)C1` (stereo not drawn) [Example 1D], the “Intrinsic Activity Relative to Oxymetazoline, Alpha 2B” value was determined as 0.6.

For the compound `O=C1/C(=C/c2c[nH]cn2)CSc2ccccc21` [Example B-5a, 3-(1H-imidazol-4(5)-ylmethylene)thiochroman-4-one], the “Intrinsic Activity Relative to Oxymetazoline, Alpha 2B” value was 0.5.

With `c1ccc2c(c1)CC(Cc1c[nH]cn1)C2` [Example B-7c, 4(5)-indan-2-ylmethyl-1H-imidazole], the “Intrinsic Activity Relative to Oxymetazoline, Alpha 2B” value was 0.9.

In the case of `CC(C)(C)c1ccc(Cc2c[nH]cn2)o1` [Example K-2, 4(5)-(5-tert-butylfuran-2-ylmethyl)-1H-imidazole], the “Intrinsic Activity Relative to Oxymetazoline, Alpha 2B” value is recorded as 0.7.

Take `COc1ccc2c(c1)CC(Cc1c[nH]cn1)CC2.Cl` (stereo not drawn) [Example B-1, 4(5)-(7-methoxy-1,2,3,4-tetrahydronaphthalen-2-ylmethyl)-1H-imidazole, hydrogen chloride salt]: the “Intrinsic Activity Relative to Oxymetazoline, Alpha 2B” value is reported as 0.45.

On to `CCc1ccc(Cc2c[nH]cn2)o1` [Example C-11, 4(5)-(5-ethylfuran-2-ylmethyl)-1H-imidazole], for which the “Intrinsic Activity Relative to Oxymetazoline, Alpha 2B” value was found to be 0.5.

For the compound `c1ccc2c(c1)OCCC2Cc1cnc[nH]1` (stereo not drawn) [Example 1C], the “Intrinsic Activity Relative to Oxymetazoline, Alpha 2B” value was determined as 0.8.

Regarding `CC1=CC(Cc2c[nH]cn2)CC1` (stereo not drawn) [Example T-3, 4(5)-(3-methylcyclopent-2-enylmethyl)-1H-imidazole, but-2-enedioic acid salt], the “Intrinsic Activity Relative to Oxymetazoline, Alpha 2B” value is on record as 1.08.

With `C#CC1=CCC(Cc2c[nH]cn2)CC1` (stereo not drawn) [Example 1K], the “Intrinsic Activity Relative to Oxymetazoline, Alpha 2B” value is recorded as 0.6.

For the compound `C[C@@]12CCCCC1=C[C@@H](Cc1c[nH]cn1)CC2` [Example S, 4(5)-(4a-methyl-2,3,4,4a,5,6,7,8-octahydro-naphthalen-2-ylmethyl)-1H-imidazole, but-2-enedioic acid salt], the “Intrinsic Activity Relative to Oxymetazoline, Alpha 2B” value is listed as “.6”.

Turning to `Cl.c1nc(CC2CC3CCCC3C2)c[nH]1` (stereo not drawn) [Example O, 4(5)-octahydro pentalen-2-ylmethyl-1H-imidazole, hydrochloride], the “Intrinsic Activity Relative to Oxymetazoline, Alpha 2B” value is 0.67.

As to `O=C1C(Cc2c[nH]cn2)CCC2NCCCC12` (stereo not drawn) [Example Q-5, 6-(1H-imidazol-4(5)-yl-methyl)-octahydroquinolin-5-one], the “Intrinsic Activity Relative to Oxymetazoline, Alpha 2B” value is 1.0.

Regarding `O=C1c2ccncc2CCC1Cc1c[nH]cn1` (stereo not drawn) [Example R-2, 6-(1H-imidazol-4(5)-ylmethyl)-7,8-dihydro-6H-isoquinolin-5-one, dihydrochloride], the “Intrinsic Activity Relative to Oxymetazoline, Alpha 2B” value was 0.6.

With `CCC1=CCCCC1Cc1c[nH]cn1` (stereo not drawn) [Example 1N], the “Intrinsic Activity Relative to Oxymetazoline, Alpha 2B” value turned out to be 0.7.

On to `OC1c2ccccc2OCC1Cc1c[nH]cn1` (stereo not drawn) [Example B-2c, 3-(1H-imidazol-4(5)-ylmethyl)chroman-4-ol], for which the “Intrinsic Activity Relative to Oxymetazoline, Alpha 2B” value was determined as 0.65.

For the compound `CC1=CCCCC1Cc1c[nH]cn1` (stereo not drawn) [Example 1M], the “Intrinsic Activity Relative to Oxymetazoline, Alpha 2B” value amounted to 0.6.

For the compound `C1=CC(Cc2c[nH]cn2)CCC1` (stereo not drawn) [Example U-1, 4(5)-cyclohex-2-enylmethyl-1H-imidazole, but-2-enedioic acid salt], the “Intrinsic Activity Relative to Oxymetazoline, Alpha 2B” value is on record as 0.6.

On to `Brc1csc(Cc2c[nH]cn2)c1` [Example C-12, 4(5)-(4-bromothiophen-2-ylmethyl)-1H-imidazole], for which the “Intrinsic Activity Relative to Oxymetazoline, Alpha 2B” value came to 1.3.

For `C1CO/C(=N\C2CC3CCC2C3)N1` [Example D-3, bicyclo[2.2.1]hept-2-yl oxazolidin-2-ylidene amine], the “Intrinsic Activity Relative to Oxymetazoline, Alpha 2B” value was found to be 0.4.

Turning to `CCC1=CC(Cc2c[nH]cn2)CC1` (stereo not drawn) [Example 1Q], the “Intrinsic Activity Relative to Oxymetazoline, Alpha 2B” value was 0.75.

On to `CCC1=CC(Cc2c[nH]cn2)CCC1` (stereo not drawn) [Example 1P], for which the “Intrinsic Activity Relative to Oxymetazoline, Alpha 2B” value worked out at 0.7.

As to `CC1=C(C)CC(Cc2c[nH]cn2)CC1` (stereo not drawn) [Example W-1, 4(5)-(3,4-Dimethyl-cyclohex-3-enylmethyl)-1H-imidazole, but-2-enedioic acid salt], the “Intrinsic Activity Relative to Oxymetazoline, Alpha 2B” value is 0.55.

With `O=C1CCCCC1Cc1c[nH]cn1` (stereo not drawn) [V, 2-(1H-Imidazole-4(5)-ylmethyl)-cyclohexanone, but-2-enedioic acid salt], the “Intrinsic Activity Relative to Oxymetazoline, Alpha 2B” value is 0.4.

Take `O=C1/C(=C/c2c[nH]cn2)CCc2ncccc21` [Example Q-2, (E)-6-(1H-imidazol-4(5)-ylmethylene)-7,8-dihydro-6H-quinolin-5-one]: the “Intrinsic Activity Relative to Oxymetazoline, Alpha 2B” value is 0.87.

Take `O=C1/C(=C\c2c[nH]cn2)CCc2ncccc21` [Example Q-1, (Z)-6-(1H-imidazol-4(5)-ylmethylene)-7,8-dihydro-6H-quinolin-5-one]: the “Intrinsic Activity Relative to Oxymetazoline, Alpha 2B” value is on record as 0.75.

As to `C1=CCC(Cc2c[nH]cn2)CC1` (stereo not drawn) [Example W-2, 4(5)-Cyclohex-3-enylmethyl-1H-imidazole, but-2-enedioic acid salt], the “Intrinsic Activity Relative to Oxymetazoline, Alpha 2B” value was 0.6.

Take `c1ccc2c(c1)SCCC2Cc1cnc[nH]1` (stereo not drawn) [Example 1-B]: the “Intrinsic Activity Relative to Oxymetazoline, Alpha 2B” value came to 0.7.

For the compound `C=CC1=CCC(Cc2c[nH]cn2)CC1` (stereo not drawn) [Example 1-A], the “Intrinsic Activity Relative to Oxymetazoline, Alpha 2B” value was 0.7.

In the case of `CCCCCC1=CCC(Cc2c[nH]cn2)CC1` (stereo not drawn) [Example X-3, 4(5)-(4-Pentyl-cyclohex-3-enylmethyl)-1H-imidazole, but-2-enedioic acid salt], the “Intrinsic Activity Relative to Oxymetazoline, Alpha 2B” value is 0.87.

For the compound `c1cnc2c(c1)CC(Cc1c[nH]cn1)CC2` (stereo not drawn) [Example Q-4, 6-(1H-imidazol-4(5)-ylmethyl)-5,6,7,8-tetrahydro-quinoline, dihydrochloride], the “Intrinsic Activity Relative to Oxymetazoline, Alpha 2B” value worked out at 0.8.

Take `c1nc(Cc2ccoc2)c[nH]1` [Example C-6, 4(5)-furan-3-ylmethyl-1H-imidazole]: the “Intrinsic Activity Relative to Oxymetazoline, Alpha 2B” value came out at 0.67.

Take `C1=C(Cc2c[nH]cn2)CSc2ccccc21` [Example 1F]: the “Intrinsic Activity Relative to Oxymetazoline, Alpha 2B” value is recorded as 0.8.

As for `c1cc2c(cn1)CC(Cc1c[nH]cn1)CC2` (stereo not drawn) [Example P-2, 7-(1H-imidazol-4(5)-ylmethyl)-5,6,7,8-tetrahydro-isoquinoline, fumarate], the “Intrinsic Activity Relative to Oxymetazoline, Alpha 2B” value is 0.4.

Consider `c1nc(CC2CCC3=C(CCCC3)C2)c[nH]1` (stereo not drawn) [Example N-3, 4(5)-(1,2,3,4,5,6,7,8-octahydronaphthalen-2-ylmethyl)-1H-imidazole, fumarate], for which the “Intrinsic Activity Relative to Oxymetazoline, Alpha 2B” value stood at 0.75.

Turning to `c1ccc(Sc2c[nH]cn2)cc1` [H, 4(5)-phenylsulfanyl-1H-imidazole], the “Intrinsic Activity Relative to Oxymetazoline, Alpha 2B” value was determined as 0.93.

`CC(c1c[nH]cn1)c1ccco1` (stereo not drawn) [L, 4(5)-(1-furan-2-ylethyl)-1H-imidazole]: the “Intrinsic Activity Relative to Oxymetazoline, Alpha 2B” value came to 0.9.

`c1ccc2c(c1)CCCC2Cc1c[nH]cn1` (stereo not drawn) [Example 1H]: the “Intrinsic Activity Relative to Oxymetazoline, Alpha 2B” value is recorded as 0.6.
